These results are taken from patent US5849560A, “Proteases causing degradation of amyloid β-protein precursor” (priority 1993, dated 1998).

Assay [1] has as its target T1, "Met cut" metalloprotease (AD metalloprotease) purified from AD brain homogenate (Homo sapiens, UniProt P52888).
T1 construct: isolate and purify an AD metalloprotease from AD brain homogenate; from tissue; host or cells: brain of Alzheimer's disease patients
Description: Effect of additives on synthetic peptide substrate (P1) degrading activity of the purified Met cut metalloprotease. The assay is classed as biochemical. Conditions: for effect on metalloprotease activity (in words): concentrations as in Table II, divalent ions at 2 mM; for remaining activity at 150 µM: reagent conc. 0.15 mM; for remaining activity at 140 µM: reagent conc. 0.14 mM; for remaining activity at 5000 µM: reagent conc. 5.0 mM; for remaining activity at 200 µM: reagent conc. 0.2 mM. The method, then:
The different protease fractions are monitored for proteolytic activity against iodinated peptide "P1". Incubations are carried out at 37° C. in 50 mM Tris-Cl, pH 7.4, in the presence of 1 mM MgCl2 +1 mM DTT. The proteolytic products are separated by TLC on cellulose microcrystalline plates, using n-butanol:pyridine:acetic acid:water, 15:10:3:12 (v/v), as a solvent, followed by autoradiography. […] ID NO. 1] to His-Ser-Glu-Val-Lys-Met [SEQ, ID NO. 2] were quantified with a Molecular Dynamics ImageQuant™ v3.0 scanning densitometer or a Bioscan system 200 imaging scanner. […] One unit of Met cut metalloprotease activity under these conditions was defined as converting 1 μg of P1 to His-Ser-Glu-Val-Lys-Met [SEQ. ID NO. 2] in 1 min.
Referring now to Table II, the effects of various additives on the activity degrading the synthetic substrate (P1) were examined. The metalloprotease sample as incubated with the appropriate amount of additive and assayed for remaining activity, as described above. Control reactions with no reagent, or containing only the solvent of the reagent were always included. Reactions were allowed to proceed for 45 min at 4° C., except E-64 which was incubated for 15 or 30 min (b and c respectively) and iodoacetamide was incubated at 37° C. for 30 min.
Stock solutions of phenylmethylsulfonyl fluoride (PMSF)", E-64, 1,10 phenanthroline, calpain inhibitor, Z-Phe-Phe-CH2 F (Enzyme Systems Products, Livermore, Calif.) were dissolved in ethanol. […] ZINCOV (Calbiochem, Calif.) and phosphoramidon (Sigma, USA), were also dissolved in water. Pepstatin A was dissolved in methanol. The susceptibility of the protease activity to various divalent cations was determined by including metals at a final concentration of 2 mM in the assay reaction mixture.

The test system of assay [2] is Ca2+ activated serine protease (serine AD proteolytic factor) from AD brain. Description: Peptide degradation assay (125I-P1, TLC) with the serine AD proteolytic factor and inhibitors. The format is biochemical, human.
Setting [3] is: reagent conc. 1.0 mM, 45 min at 4° C.
The mark [4] stands for this setting: concentrations as in Table II (iodoacetamide 8.0 mM, leupeptin 0.2 mM), read-out: partial inhibitory effect on the protease.

Non-standard residues stand in square brackets, D forms with d. Residues, ends and D or L forms follow the SMILES beside them. *: point of attachment. Sta = CC(C)C[C@H](N)[C@@H](O)CC(=O)O; Isovaleryl = CC(C)CC(=O)*; Cbz = O=C(OCc1ccccc1)*; CH2F = FC*

T1 sequence (P52888 whole entry): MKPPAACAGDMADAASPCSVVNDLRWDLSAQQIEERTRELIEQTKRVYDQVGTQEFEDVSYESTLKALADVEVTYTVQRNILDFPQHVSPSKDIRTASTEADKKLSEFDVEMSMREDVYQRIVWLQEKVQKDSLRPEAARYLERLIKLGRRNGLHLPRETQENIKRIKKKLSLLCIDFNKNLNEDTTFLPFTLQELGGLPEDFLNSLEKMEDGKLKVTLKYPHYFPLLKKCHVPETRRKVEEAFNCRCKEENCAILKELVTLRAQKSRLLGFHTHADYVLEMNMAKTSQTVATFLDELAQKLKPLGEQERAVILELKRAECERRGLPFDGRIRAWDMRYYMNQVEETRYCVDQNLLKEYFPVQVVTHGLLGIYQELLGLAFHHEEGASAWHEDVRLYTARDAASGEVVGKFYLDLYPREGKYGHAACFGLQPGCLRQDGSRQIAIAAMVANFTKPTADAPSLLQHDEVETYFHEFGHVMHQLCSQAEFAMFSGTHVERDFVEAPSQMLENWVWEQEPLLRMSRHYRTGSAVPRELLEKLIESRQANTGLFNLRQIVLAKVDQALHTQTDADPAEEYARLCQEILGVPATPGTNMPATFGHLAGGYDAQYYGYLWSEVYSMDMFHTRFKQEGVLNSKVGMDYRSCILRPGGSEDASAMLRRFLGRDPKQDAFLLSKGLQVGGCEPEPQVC

Consider `CC(C)C[C@H](NP(=O)(O)O[C@@H]1O[C@@H](C)[C@H](O)[C@@H](O)[C@H]1O)C(=O)N[C@@H](Cc1c[nH]c2ccccc12)C(=O)O` [Phosphoramidon], for which the remaining activity at 1000 µM in assay [1] (setting [3]) amounted to 89.5%.

Regarding `C[C@H](NC(=O)[C@H](C)NC(CCc1ccccc1)C(=O)O)C(=O)N[C@@H](Cc1ccccc1)C(=O)Nc1ccc(C(=O)O)cc1` (stereo partly drawn) [CPP-Ala-Ala-Phe-pAB], the “effect on metalloprotease activity (in words)” value in assay [1] was “strongly inhibited”. This molecule showed a remaining activity at 15 µM in assay [1] (reagent conc. 0.015 mM, 45 min at 4° C.) of 47.5%. Moreover, the remaining activity at 150 µM in assay [1] (45 min at 4° C.) came to 28%.

With `CC(C)CC(NC(=O)C1OC1C(=O)O)C(=O)NCCCCN=C(N)N` (stereo not shown) [E-64], the “effect on metalloprotease activity (in words)” value in assay [1] is reported as “less”. Also, the remaining activity at 140 µM came out at 57.5% in assay [1] (incubated 15 min (b)) and 27.3% in assay [1] (incubated 30 min (c)).

Regarding `c1cnc2c(c1)ccc1cccnc12` [1,10 phenanthroline], in assay [1], the “effect on metalloprotease activity (in words)” value is recorded as “Strong inhibition”. The molecule also yielded a remaining activity at 4000 µM in assay [1] (reagent conc. 4.0 mM, 45 min at 4° C.) of 0%.

Consider `O=C(O)c1cc[c]([Hg][OH])cc1` [Hydroxymercurybenzoate, hydroxymercurybenzoate], for which the “effect on metalloprotease activity (in words)” value in assay [1] is “strong inhibition”. Besides, in assay [1] (reagent conc. 1.6 mM, 45 min at 4° C.), the “% Activity Remaining” value turned out to be 0%. Besides, the “reversal of inhibition by the reducing agent (DTT)” value in assay [1] (stoichiometrically increasing concentrations of DTT) is given as “readily reversed”.

With `O=C(O)CN(CCOCCOCCN(CC(=O)O)CC(=O)O)CC(=O)O` [EGTA], in assay [1], the “effect on metalloprotease activity (in words)” value was “Strong inhibition”. In assay [1] (reagent conc. 7.5 mM, 45 min at 4° C.), this molecule had a remaining activity at 7500 µM of 0%. The “effect on cleavage of 125I-P1 by the serine AD proteolytic factor (in words)” value (from here on “effect on cleavage of 125I-P1”) in assay [2] was “prevent cleavage”.

For `CCN1C(=O)C=CC1=O` [N-ethylmaleimide], in assay [1], the “effect on metalloprotease activity (in words)” value was “strong inhibition”. The remaining activity at 5000 µM in assay [1] (45 min at 4° C.) is 7.9%.

Take `CC(=O)N[C@@H](CC(C)C)C(=O)N[C@@H](CC(C)C)C(=O)N[C@H](C=O)CCCNC(=N)N` [Leupeptin]: in assay [1] (setting [4]), the inhibition at 200 µM is 36.3%. Besides, in assay [1] (45 min at 4° C.), the remaining activity at 200 µM worked out at 63.7%.

As for albumin, in assay [2], the “effect on cleavage of 125I-P1” value is given as “did not influence the activity”.

In the case of `CC(C)CC(=O)N[C@H](C(=O)N[C@H](C(=O)N[C@@H](CC(C)C)[C@@H](O)CC(=O)N[C@@H](C)C(=O)N[C@@H](CC(C)C)[C@@H](O)CC(=O)O)C(C)C)C(C)C` [Pepstatin A] (Isovaleryl-VV[Sta]A[Sta]-OH), the remaining activity at 150 µM in assay [1] (45 min at 4° C.) was 100%.

In assay [1] (reagent conc. 0.002 mM, 45 min at 4° C.), `CC(C)C[C@H](NC(=O)[C@@H](O)[C@H](N)Cc1ccccc1)C(=O)O` [Bestatin] returned a remaining activity at 2 µM of 60%.

With `NC(=O)CI` [Iodoacetamide], the inhibition at 8000 µM in assay [1] (setting [4]) worked out at 34%. The remaining activity at 8000 µM in assay [1] (reagent conc. 8.0 mM, 37° C. for 30 min) turned out to be 66%.

As for `O=S(=O)(F)Cc1ccccc1` [PMSF, phenylmethylsulfonyl fluoride], in assay [1] (reagent conc. 7.0 mM, 45 min at 4° C.), the “% Activity Remaining” value is reported as 100%.

In the case of `O=C(N[C@@H](Cc1ccccc1)C(=O)N[C@@H](Cc1ccccc1)C(=O)CF)OCc1ccccc1` [Z-Phe-Phe-CH2F] (Cbz-Phe-Phe-CH2F), the remaining activity at 200 µM in assay [1] (45 min at 4° C.) is 82.7%.

On to Aprotinin, for which the “% Activity Remaining” value in assay [1] (reagent conc. 0.03 mM, 45 min at 4° C.) stood at 100%.

Turning to `O[C@H](CS)[C@H](O)CS` (racemic) [Dithiothreitol, dithiothreitol], the “effect on metalloprotease activity (in words)” value in assay [1] was “required for the activity”. The “% Activity Remaining” value in assay [1] (reagent conc. 0.0 mM) amounted to 0%. For the same molecule, the remaining activity at 1000 µM in assay [1] (setting [3]) came out at 100%. Further, in assay [1] (reagent conc. 2.5 mM), the remaining activity at 2500 µM was 70.8%. Besides, in assay [1] (45 min at 4° C.), the remaining activity at 5000 µM was determined as 25.5%.

`CC(C)CC(C(=O)NO)C(=O)N[C@@H](C)C(=O)NCC(N)=O` (stereo partly shown) [ZINCOV]: the “effect on metalloprotease activity (in words)” value in assay [1] is given as “Strong inhibition”. In addition, the “% Activity Remaining” value in assay [1] (setting [3]) is reported as 42.4%.

B1: Soybean Trypsin Inhibitor: Soybean Trypsin Inhibitor, protease inhibitor tested in Table II (protein, UniProt P01070 25-205, looked up)
Trypsin inhibitor A: DFVLDNEGNPLENGGTYYILSDITAFGGIRAAPTGNERCPLTVVQSRNELDKGIGTIISSPYRIRFIAEGHPLSLKFDSFAVIMLCVGIPTEWSVVEDLPEGPAVKIGENKDAMDGWFRLERVSDDEFNNYKLVFCPQQAEDDKCGDIGISIDHDDGTRRLVVSKNKPLVVQFQKLDKESL
Consider B1, for which the “% Activity Remaining” value in assay [1] (reagent conc. 0.01 mM, 45 min at 4° C.) was determined as 100%.

B2: protease nexin 1: protease nexin 1 (protein, UniProt P07093 20-398, looked up)
Glia-derived nexin: SHFNPLSLEELGSNTGIQVFNQIVKSRPHDNIVISPHGIASVLGMLQLGADGRTKKQLAMVMRYGVNGVGKILKKINKAIVSKKNKDIVTVANAVFVKNASEIEVPFVTRNKDVFQCEVRNVNFEDPASACDSINAWVKNETRDMIDNLLSPDLIDGVLTRLVLVNAVYFKGLWKSRFQPENTKKRTFVAADGKSYQVPMLAQLSVFRCGSTSAPNDLWYNFIELPYHGESISMLIALPTESSTPLSAIIPHISTKTIDSWMSIMVPKRVQVILPKFTAVAQTDLKEPLKVLGITDMFDSSKANFAKITTGSENLHVSHILQKAKIEVSEDGTKASAATTAILIARSSPPWFIVDRPFLFFIRHNPTGAVLFMGQINKP
B2: in assay [2], the “effect on cleavage of 125I-P1” value is on record as “did not influence the activity”.

B3: ACT: serine protease inhibitor α1-antichymotrypsin (Calbiochem) (protein, UniProt P01011 24-423, looked up)
Alpha-1-antichymotrypsin: HPNSPLDEENLTQENQDRGTHVDLGLASANVDFAFSLYKQLVLKAPDKNVIFSPLSISTALAFLSLGAHNTTLTEILKGLKFNLTETSEAEIHQSFQHLLRTLNQSSDELQLSMGNAMFVKEQLSLLDRFTEDAKRLYGSEAFATDFQDSAAAKKLINDYVKNGTRGKITDLIKDLDSQTMMVLVNYIFFKAKWEMPFDPQDTHQSRFYLSKKKWVMVPMMSLHHLTIPYFRDEELSCTVVELKYTGNASALFILPDQDKMEEVEAMLLPETLKRWRDSLEFREIGELYLPKFSISRDYNLNDILLQLGIEEAFTSKADLSGITGARNLAVSQVVHKAVLDVFEEGTEASAATAVKITLLSALVETRTIVRFNRPFLMIIVPTDTQNIFFMSKVTNPKQA
As for B3, the “effect on cleavage of 125I-P1” value in assay [2] is recorded as “inhibited cleavage”.
